The values below come from patent publication US9834566B2, “Pyrazolopyrimidine macrocycles as inhibitors of human immunodeficiency virus replication” (priority 2014, dated 2017).

This test relates to recombinant NL-RLuc virus (NL4-3 with Renilla Luciferase gene). The test is described as follows: Inhibition of HIV replication (NL-RLuc luciferase reporter virus in MT-2 cells). In kind it is cell-based. Conditions: NL43, 120 h. The source says:
Inhibition of HIV Replication:
A recombinant NL-RLuc proviral clone was constructed in which a section of the nef gene from NL4-3 was replaced with the Renilla Luciferase gene. This virus is fully infectious and can undergo multiple cycles of replication in cell culture. In addition, the luciferous reporter provides a simple and easy method for quantitating the extent of virus growth and consequently, the antiviral activity of test compounds. The plasmid pNLRLuc contains the proviral NL-Rluc DNA cloned into pUC18 at the PvuII site. The NL-RLuc virus was prepared by transfection of 293T cells with the plasmid pNLRLuc. Transfections were performed using the LipofectAMINE PLUS kit from Invitrogen (Carlsbad, Calif.) according to the manufacturer and the virus generated was titered in MT-2 cells. For susceptibility analyses, the titrated virus was used to infect MT-2 cells in the presence of compound, and after 5 days of incubation, cells were processed and quantitated for virus growth by the amount of expressed luciferase. Assay media was RPMI 1640 supplemented with 10% heat inactivated fetal bovine serum (FBS), 100 units/ml penicillin G/100 units/ml streptomycin, 10 mM HEPES buffer pH 7.55 and 2 mM L-glutamine. The results from at least 2 experiments were used to calculate the EC50 values. Luciferase was quantitated using the Dual Luciferase kit from Promega (Madison, Wis.). Susceptibility of viruses to compounds was determined by incubation in the presence of serial dilutions of the compound. The 50% effective concentration (EC50) was calculated by using the exponential form of the median effect equation where (Fa)=1/[1+(ED50/drug conc.)^m] (Johnson V A, Byington R T. Infectivity Assay. In Techniques in HIV Research. ed. Aldovini A, Walker B D. 71-76. New York: Stockton Press. 1990).

In the case of `Cc1nc2cc3nn2c(c1[C@H](OC(C)(C)C)C(=O)O)-c1ccc(cc1)OCCCCCCOc1cc(F)ccc1-c1cccc-3c1` [Example 1, (2S)-2-(tert-butoxy)-2-{18-fluoro-4-methyl-21,28-dioxa-5,7,8-triazahexacyclo [27.2.2.1^6,^9.1^10,^14.0^2,^7.0^15,^20]pentatriaconta-1(31),2,4,6(35),8,10(34),11,13, 15(20),16,18,29,32-tridecaen-3-yl}acetic acid], the EC50 (commonly the concentration needed to bring the measured effect to its halfway point) was found to be 397 nM.
Take `Cc1nc2cc3nn2c(c1[C@H](OC(C)(C)C)C(=O)O)-c1ccc(cc1)OC/C=C/COc1cc(F)ccc1-c1cccc-3c1` [Example 2, (2S)-2-(tert-butoxy)-2-[(23E)-18-fluoro-4-methyl-21,26-dioxa-5,7,8-triazahexacyclo [25.2.2.1^6,^9.1^10,^14.0^2,^7.0^15,^20]tritriaconta-1(29),2,4,6(33),8,10(32),11,13, 15(20),16,18,23,27,30-tetradecaen-3-yl]acetic acid]: the EC50 stood at 696 nM.
With `Cc1nc2cc3nn2c(c1[C@H](OC(C)(C)C)C(=O)O)-c1ccc(cc1)OCc1cccc(c1)COc1cc(F)ccc1-c1cccc-3c1` [Example 3, (2S)-2-(tert-butoxy)-2-{18-fluoro-4-methyl-21,29-dioxa-5,7,8-triazaheptacyclo [28.2.2.1^6,^9.1^10,^14.1^23,^27.0^2,^7.0^15,^20]heptatriaconta-1(32),2,4,6(37),8,10(36),11,13, 15(20),16,18,23(35),24,26,30,33-hexadecaen-3-yl}acetic acid], the EC50 was 55 nM.
To `Cc1nc2cc3nn2c(c1[C@H](OC(C)(C)C)C(=O)O)-c1ccc(cc1)OCC#CCOc1cc(F)ccc1-c1cccc-3c1` [Example 4, (2S)-2-(tert-butoxy)-2-{18-fluoro-4-methyl-21,26-dioxa-5,7,8-triazahexacyclo [25.2.2.1^6,^9.1^10,^14.0^2,^7.0^15,^20]tritriaconta-1(29),2,4,6(33),8,10(32),11,13, 15(20),16,18,27,30-tridecaen-23-yn-3-yl}acetic acid] belongs 281 nM; to `Cc1nc2cc3nn2c(c1[C@H](OC(C)(C)C)C(=O)O)-c1ccc(cc1)OCCOCCOc1cc(F)ccc1-c1cccc-3c1` [Example 5, (2S)-2-(tert-butoxy)-2-{18-fluoro-4-methyl-21,24,27-trioxa-5,7,8-triazahexacyclo [26.2.2.1^6,^9.1^10,^14.0^2,^7.0^15,^20]tetratriaconta-1(30),2,4,6(34),8,10(33),11,13, 15(20),16,18,28,31-tridecaen-3-yl}acetic acid], 309 nM.
Then `Cc1nc2cc3nn2c(c1[C@H](OC(C)(C)C)C(=O)O)-c1ccc(c2ccccc12)OCc1cccc(c1)COc1cc(F)ccc1-c1cccc-3c1` [Example 6, (2S)-2-(tert-butoxy)-2-{18-fluoro-4-methyl-21,29-dioxa-5,7,8-triazaoctacyclo[28.6.2.1^6,9.1^10,14. 1^23,27.0^2,7.0^15,20.0^31,36]hentetraconta-1(37),2,4,6(41),8,10(40),11,13,15(20),16,18,23(39),24,26,30(38),31(36),32,34-octadecaen-3-yl}acetic acid], with 20000 nM; and `Cc1nc2cc3nn2c(c1[C@H](OC(C)(C)C)C(=O)O)-c1ccc(c2ccccc12)OCC#CCOc1cc(F)ccc1-c1cccc-3c1` [Example 7, (2S)-2-(tert-butoxy)-2-{18-fluoro-4-methyl-21,26-dioxa-5,7,8-triazaheptacyclo[25.6.2.1^6,9.1^10,14.0^2,7.0^15,20.0^28,33]heptatriaconta-1(34),2,4,6(37),8,10(36),11,13,15(20),16,18,27(35),28 (33),29,31-pentadecaen-23-yn-3-yl}acetic acid], with 12100 nM.
To `C=C1COc2cc(ccc2C)-c2c([C@H](OC(C)(C)C)C(=O)O)c(C)nc3cc(nn23)-c2cccc(c2)-c2ccc(F)cc2OC1` [Example 8, (2S)-2-(tert-Butoxy)-2-{22-fluoro-7,13-dimethyl-17-methylidene-15,19-dioxa-3,4,6-triazahexacyclo [24.3.1.1^2,^5.1^10,^14.0^4,^9.0^20,^25]dotriaconta-1(30),2,5(32),6,8,10,12,14(31), 20(25),21,23,26,28-tridecaen-8-yl}acetic acid] belongs 784 nM.
For the compound `Cc1ccc2cc1OC/C=C/COc1cc(F)ccc1-c1cccc(c1)-c1cc3nc(C)c([C@H](OC(C)(C)C)C(=O)O)c-2n3n1` [Example 9, (2S)-2-(tert-Butoxy)-2-[(17E)-23-fluoro-7,13-dimethyl-15,20-dioxa-3,4,6-triazahexacyclo [25.3.1.1^2,^5.1^10,^14.0^4,^9.0^21,^26]tritriaconta-1(31),2,5(33),6,8,10,12,14(32), 17,21(26),22,24,27,29-tetradecaen-8-yl]acetic acid], the EC50 is 489 nM.
Take `Cc1ccc2cc1OCc1cccc(n1)COc1cc(F)ccc1-c1cccc(c1)-c1cc3nc(C)c([C@H](OC(C)(C)C)C(=O)O)c-2n3n1` [Example 10, (2S)-2-(tert-Butoxy)-2-{26-fluoro-7,13-dimethyl-15,23-dioxa-3,4,6,35-tetraazaheptacyclo [28.3.1.1^2,^5.1^10,^14.0^17,^21.0^4,^9.0^24,^29]heptatriaconta-1(34),2,5(37),6,8,10,12,14(36), 17(35),18,20,24(29),25,27,30,32-hexadecaen-8-yl}acetic acid]: the EC50 was 4200 nM.
As for `Cc1ccc2cc1OC/C=C\COc1cc(F)ccc1-c1cccc(c1)-c1cc3nc(C)c([C@H](OC(C)(C)C)C(=O)O)c-2n3n1` [Example 11, (2S)-2-(tert-Butoxy)-2-[(17Z)-23-fluoro-7,13-dimethyl-15,20-dioxa-3,4,6-triazahexacyclo [25.3.1.1^2,^5.1^10,^14.0^4,^9.0^21,^26]tritriaconta-1(31),2,5(33),6,8,10,12,14(32), 17,21(26),22,24,27,29-tetradecaen-8-yl]acetic acid], the EC50 stood at 3310 nM.
Consider `Cc1ccc2cc1OCCC(F)(F)C(F)(F)CCOc1cc(F)ccc1-c1cccc(c1)-c1cc3nc(C)c([C@H](OC(C)(C)C)C(=O)O)c-2n3n1` [Example 12, (2S)-2-(tert-Butoxy)-2-{18,18,19,19,25-pentafluoro-7,13-dimethyl-15,22-dioxa-3,4,6-triazahexacyclo [27.3.1.1^2,^5.1^10,^14.0^4,^9.0^23,^28]pentatriaconta-1(33),2,5(35),6,8,10,12,14(34), 23(28),24,26,29,31-tridecaen-8-yl}acetic acid], for which the EC50 came out at 1670 nM.
`Cc1ccc2cc1OCC#CCOc1cc(F)ccc1-c1cccc(c1)-c1cc3nc(C)c([C@H](OC(C)(C)C)C(=O)O)c-2n3n1` [Example 13, (2S)-2-(tert-Butoxy)-2-{23-fluoro-7,13-dimethyl-15,20-dioxa-3,4,6-triazahexacyclo [25.3.1.1^2,^5.1^10,^14.0^4,^9.0^21,^26]tritriaconta-1(31),2,5(33),6,8,10,12,14(32), 21(26),22,24,27,29-tridecaen-17-yn-8-yl}acetic acid]: the concentration giving a half-maximal response (EC50) stood at 288 nM.
With `Cc1ccc2cc1OCCN(C(C)(C)C)CCOc1cc(F)ccc1-c1cccc(c1)-c1cc3nc(C)c([C@H](OC(C)(C)C)C(=O)O)c-2n3n1` [Example 14, (2S)-2-(tert-Butoxy)-2-{18-tert-butyl-24-fluoro-7,13-dimethyl-15,21-dioxa-3,4,6,18-tetraazahexacyclo [26.3.1.1^2,^5.1^10,^14.0^4,^9.0^22,^27]tetratriaconta-1(32),2,5(34),6,8,10,12,14(33), 22(27),23,25,28,30-tridecaen-8-yl}acetic acid], the EC50 was 3250 nM.
Then `Cc1ccc2cc1OCc1cccc(c1)COc1cc(F)ccc1-c1cccc(c1)-c1cc3nc(C)c([C@H](OC(C)(C)C)C(=O)O)c-2n3n1` [Example 15, (2S)-2-(tert-Butoxy)-2-{26-fluoro-7,13-dimethyl-15,23-dioxa-3,4,6-triazaheptacyclo [28.3.1.1^2,^5.1^10,^14.1^17,^21.0^4,^9.0^24,^29]heptatriaconta-1(34),2,5(37),6,8,10,12,14(36), 17(35),18,20,24(29),25,27,30,32-hexadecaen-8-yl}acetic acid], with 301 nM; and `Cc1ccc2cc1OCCCCCCOc1cc(F)ccc1-c1cccc(c1)-c1cc3nc(C)c([C@H](OC(C)(C)C)C(=O)O)c-2n3n1` [Example 16, (2S)-2-(tert-Butoxy)-2-{25-fluoro-7,13-dimethyl-15,22-dioxa-3,4,6-triazahexacyclo [27.3.1.1^2,^5.1^10,^14.0^4,^9.0^23,^28]pentatriaconta-1(33),2,5(35),6,8,10,12,14(34), 23(28),24,26,29,31-tridecaen-8-yl}acetic acid], with 780 nM; and `Cc1ccc2cc1OCCOCCOc1cc(F)ccc1-c1cccc(c1)-c1cc3nc(C)c([C@H](OC(C)(C)C)C(=O)O)c-2n3n1` [Example 17, (2S)-2-(tert-Butoxy)-2-{24-fluoro-7,13-dimethyl-15,18,21-trioxa-3,4,6-triazahexacyclo [26.3.1.1^2,^5.1^10,^14.0^4,^9.0^22,^27]tetratriaconta-1(32),2,5(34),6,8,10,12,14(33), 22(27),23,25,28,30-tridecaen-8-yl}acetic acid], with 289 nM.
